Laboratory results taken from patent US20240368173A1, “TRICYCLIC GPR65 MODULATORS” (PATHIOS THERAPEUTICS LIMITED, priority 2021, published 2024).
Like-named read-outs stand apart in the source and are kept apart here.

Biological target: human recombinant GPR65 (Homo sapiens, UniProt Q8IYL9)
Experiment: Human GPR65 cAMP HTRF antagonist assay
Assay type: cell-based
Procedure, shortened: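 Antagonism measured as suppression of the cAMP rise when pH is dropped to 7.2 (control wells pH 7.9) in 1321N1 cells stably carrying human GPR65. Cells in KRH with 1 mM IBMX and 200 μM EDTA saw compound 30 min, then acid stimulation 30 min; HTRF cAMP detection, normalised, 4-parameter logistic IC50.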

[1] = 1321N1-hrGPR65 cells, cAMP HTRF, assay pH 7.2, read-out: hGPR65 IC50 (Activity of selected compounds according to the invention)

Chain of human recombinant GPR65 (Q8IYL9 whole entry): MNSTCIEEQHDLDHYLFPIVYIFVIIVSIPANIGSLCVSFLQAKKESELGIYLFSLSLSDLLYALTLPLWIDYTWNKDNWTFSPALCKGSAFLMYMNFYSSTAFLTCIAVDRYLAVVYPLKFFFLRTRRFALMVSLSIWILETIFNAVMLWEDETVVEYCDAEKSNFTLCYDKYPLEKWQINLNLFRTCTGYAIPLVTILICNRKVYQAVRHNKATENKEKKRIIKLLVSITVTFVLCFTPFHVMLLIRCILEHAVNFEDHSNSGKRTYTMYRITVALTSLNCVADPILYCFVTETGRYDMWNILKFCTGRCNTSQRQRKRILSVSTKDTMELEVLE

SMILES | IC50 [1] [nM] | IC50 [nM]
O=C(Nc1cc(Cl)c(Cl)cc1F)N1[C@@H]2CC[C@H]1c1ncc(F)cc1C2 [Compound 95, (6R,9S)-N-(4,5-Dichloro-2-fluorophenyl)-3-fluoro-6,7,8,9-tetrahydro-5H-6,9-epiminocyclohepta[b]pyridine-10-carboxamide] | > 5000 | 
O=C(Nc1cc(Cl)c(C(F)(F)F)cc1F)N1[C@H]2CC[C@@H]1c1n[nH]c(=O)cc1C2 [Compound 18, (6S,9R)-N-(5-Chloro-2-fluoro-4-(trifluoromethyl)phenyl)-3-oxo-3,5,6,7,8,9-hexahydro-2H-6,9-epiminocyclohepta[c]pyridazine-10-carboxamide] |  | < 500
O=C(Nc1ccc(C2CCOCC2)cc1)N1[C@H]2CC[C@@H]1c1ccnc(F)c1C2 [Compound 57, (5R,8S)-1-Fluoro-N-(4-(tetrahydro-2H-pyran-4-yl)phenyl)-6,7,8,9-tetrahydro-5H-5,8-epiminocyclohepta[c]pyridine-10-carboxamide] | 500 to 5000 | 
CS(=O)(=O)NCc1cccc(-c2cc(F)c(NC(=O)N3[C@H]4CC[C@@H]3c3n[nH]c(=O)cc3C4)cc2Cl)c1 [Compound 203, (6S,9R)-N-(2-Chloro-5-fluoro-3′-(methylsulfonamidomethyl)-[1,1′-biphenyl]-4-yl)-3-oxo-3,5,6,7,8,9-hexahydro-2H-6,9-epiminocyclohepta[c]pyridazine-10-carboxamide] | 500 to 5000 | 
COc1cncc(-c2cc(F)c(NC(=O)N3[C@H]4CC[C@@H]3c3c[nH]c(=O)cc3C4)cc2Cl)c1 [Compound 249, (6S,9R)-N-(5-Chloro-2-fluoro-4-(5-methoxypyridin-3-yl)phenyl)-3-oxo-3,5,6,7,8,9-hexahydro-2H-6,9-epiminocyclohepta[c]pyridine-10-carboxamide] |  | < 500
O=C(Nc1cc(Cl)c(-c2ccc(OC3CCC3)nc2)cc1F)N1[C@H]2CC[C@@H]1c1n[nH]c(=O)cc1C2 [Compound 216, (6S,9R)-N-(5-Chloro-4-(6-cyclobutoxypyridin-3-yl)-2-fluorophenyl)-3-oxo-3,5,6,7,8,9-hexahydro-2H-6,9-epiminocyclohepta[c]pyridazine-10-carboxamide] |  | < 500
O=C(Nc1cc(Cl)c(-c2ccccn2)cc1F)N1[C@H]2CC[C@@H]1c1n[nH]c(=O)cc1C2 [Compound 195, (6S,9R)-N-(5-Chloro-2-fluoro-4-(pyridin-2-yl)phenyl)-3-oxo-3,5,6,7,8,9-hexahydro-2H-6,9-epiminocyclohepta[c]pyridazine-10-carboxamide] |  | < 500
O=C(Nc1ccc(Br)c(Cl)c1)N1[C@H]2CC[C@@H]1c1n[nH]c(=O)cc1C2 [Compound 39, (6S,9R)-N-(4-Bromo-3-chlorophenyl)-3-oxo-3,5,6,7,8,9-hexahydro-2H-6,9-epiminocyclohepta[c]pyridazine-10-carboxamide] |  | < 500
C[C@@]12CC[C@@H](Cc3c1ccnc3F)N2C(=O)Nc1cc(Cl)c(Cl)cc1F [Compound 103, (5R,8S)-N-(4,5-Dichloro-2-fluorophenyl)-1-fluoro-5-methyl-6,7,8,9-tetrahydro-5H-5,8-epiminocyclohepta[c]pyridine-10-carboxamide] |  | < 500
O=C(Nc1cc(Cl)c(-c2ccnc(F)c2)cc1F)N1[C@H]2CC[C@@H]1c1n[nH]c(=O)cc1C2 [Compound 266, (6S,9R)-N-(5-Chloro-2-fluoro-4-(2-fluoropyridin-4-yl)phenyl)-3-oxo-3,5,6,7,8,9-hexahydro-2H-6,9-epiminocyclohepta[c]pyridazine-10-carboxamide] |  | < 500
CO[C@H]1C[C@H](Oc2ccc(-c3cc(F)c(NC(=O)N4[C@H]5CC[C@@H]4c4c[nH]c(=O)cc4C5)cc3Cl)cn2)C1 [Compound 317, (6S,9R)-N-(5-Chloro-2-fluoro-4-(6-((1r,3R)-3-methoxycyclobutoxy)pyridin-3-yl)phenyl)-3-oxo-3,5,6,7,8,9-hexahydro-2H-6,9-epiminocyclohepta[c]pyridine-10-carboxamide] |  | < 500
CO[C@H]1C[C@@H](Oc2ccc(-c3cc(F)c(NC(=O)N4[C@H]5CC[C@@H]4c4c[nH]c(=O)cc4C5)cc3Cl)cn2)C1 [Compound 321, (6S,9R)-N-(5-Chloro-2-fluoro-4-(6-((1s,3S)-3-methoxycyclobutoxy)pyridin-3-yl)phenyl)-3-oxo-3,5,6,7,8,9-hexahydro-2H-6,9-epiminocyclohepta[c]pyridine-10-carboxamide] |  | < 500
O=C(Nc1cc(F)c(-c2ccc(F)nc2)cc1F)N1[C@H]2CC[C@@H]1c1ccnc(F)c1C2 [Compound 242, (5R,8S)-N-(2,5-Difluoro-4-(6-fluoropyridin-3-yl)phenyl)-1-fluoro-6,7,8,9-tetrahydro-5H-5,8-epiminocyclohepta[c]pyridine-10-carboxamide] |  | < 500
COCCNc1ncc(-c2cc(F)c(NC(=O)N3[C@H]4CC[C@@H]3c3n[nH]c(=O)cc3C4)cc2Cl)cn1 [Compound 121, (6S,9R)-N-(5-Chloro-2-fluoro-4-(2-((2-methoxyethyl)amino)pyrimidin-5-yl)phenyl)-3-oxo-3,5,6,7,8,9-hexahydro-2H-6,9-epiminocyclohepta[c]pyridazine-10-carboxamide] |  | < 500
O=C(Nc1cc(Cl)c(OC2CCC2)cc1F)N1[C@H]2CC[C@@H]1c1c[nH]c(=O)cc1C2 [Compound 81, (6S,9R)-N-(5-Chloro-4-cyclobutoxy-2-fluorophenyl)-3-oxo-3,5,6,7,8,9-hexahydro-2H-6,9-epiminocyclohepta[c]pyridine-10-carboxamide] |  | < 500
O=C(Nc1cc(Cl)c(COc2ccccc2)cc1F)N1[C@H]2CC[C@@H]1c1n[nH]c(=O)cc1C2 [Compound 235, (6S,9R)-N-(5-Chloro-2-fluoro-4-(phenoxymethyl)phenyl)-3-oxo-3,5,6,7,8,9-hexahydro-2H-6,9-epiminocyclohepta[c]pyridazine-10-carboxamide] |  | < 500
Cn1ncc(-c2cc(F)c(NC(=O)N3[C@H]4CC[C@@H]3c3n[nH]c(=O)cc3C4)cc2Cl)n1 [Compound 139, (6S,9R)-N-(5-Chloro-2-fluoro-4-(2-methyl-2H-1,2,3-triazol-4-yl)phenyl)-3-oxo-3,5,6,7,8,9-hexahydro-2H-6,9-epiminocyclohepta[c]pyridazine-10-carboxamide] |  | < 500
COc1cnccc1-c1cc(F)c(NC(=O)N2[C@H]3CC[C@@H]2c2c[nH]c(=O)cc2C3)cc1Cl [Compound 298, (6S,9R)-N-(5-Chloro-2-fluoro-4-(3-methoxypyridin-4-yl)phenyl)-3-oxo-3,5,6,7,8,9-hexahydro-2H-6,9-epiminocyclohepta[c]pyridine-10-carboxamide] |  | 500 to 5000
COc1cncc(-c2cc(F)c(NC(=O)N3[C@H]4CC[C@@H]3c3n[nH]c(=O)cc3C4)cc2Cl)c1 [Compound 114, (6S,9R)—N-(5-Chloro-2-fluoro-4-(5-methoxypyridin-3-yl)phenyl)-3-oxo-3,5,6,7,8,9-hexahydro-2H-6,9-epiminocyclohepta[c]pyridazine-10-carboxamide] |  | < 500
CN(C)Cc1cccc(-c2cc(F)c(NC(=O)N3[C@H]4CC[C@@H]3c3n[nH]c(=O)cc3C4)cc2Cl)c1 [Compound 133, (6S,9R)-N-(2-Chloro-3′-((dimethylamino)methyl)-5-fluoro-[1,1′-biphenyl]-4-yl)-3-oxo-3,5,6,7,8,9-hexahydro-2H-6,9-epiminocyclohepta[c]pyridazine-10-carboxamide] | 500 to 5000 | 
